Data: patent publication US20040235834A1, “Thiazoles useful as inhibitors of protein kinases” (priority 2003, published 2004)

Experiments:
ZAP-70 = target: T1, ZAP-70 (Homo sapiens, UniProt P43403); experiment: ZAP-70 inhibition assay (standard coupled enzyme assay); type: biochemical; conditions: 100 μM ATP, 20 μM poly-4EY peptide, 30° C., 60 nM ZAP-70
T1 sequence (P43403 1-619): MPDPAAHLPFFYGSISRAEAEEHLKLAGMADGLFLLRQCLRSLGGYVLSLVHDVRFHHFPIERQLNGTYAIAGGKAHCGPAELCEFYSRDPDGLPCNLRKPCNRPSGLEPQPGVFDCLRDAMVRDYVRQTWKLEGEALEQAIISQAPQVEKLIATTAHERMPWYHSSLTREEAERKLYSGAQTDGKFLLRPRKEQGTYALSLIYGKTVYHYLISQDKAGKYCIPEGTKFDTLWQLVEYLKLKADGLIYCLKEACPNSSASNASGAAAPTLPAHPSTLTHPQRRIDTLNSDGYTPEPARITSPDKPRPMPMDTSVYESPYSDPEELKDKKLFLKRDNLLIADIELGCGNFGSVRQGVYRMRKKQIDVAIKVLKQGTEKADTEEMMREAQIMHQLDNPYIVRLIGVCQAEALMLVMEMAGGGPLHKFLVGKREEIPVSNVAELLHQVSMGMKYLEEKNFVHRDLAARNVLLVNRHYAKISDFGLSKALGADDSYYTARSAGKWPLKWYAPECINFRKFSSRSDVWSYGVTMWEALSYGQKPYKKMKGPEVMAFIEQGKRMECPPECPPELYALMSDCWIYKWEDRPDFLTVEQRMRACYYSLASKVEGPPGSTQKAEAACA
Experimental: Compounds were screened for their ability to inhibit ZAP-70 using a standard coupled enzyme assay (Fox et al., Protein Sci. 1998, 7, 2249). Assays were carried out in a mixture of 100 mM HEPES (pH 7.5), 10 mM MgCl2, 25 mM NaCl, 2 mM DTT and 3% DMSO. Final substrate concentrations in the assay were 100 μM ATP (Sigma Chemicals) and 20 μM peptide (poly-4EY, Sigma Chemicals). Assays were carried out at 30° C. and 60 nM ZAP-70. Final concentrations of the components of the coupled enzyme system were 2.5 mM phosphoenolpyruvate, 300 μM NADH, 30 μg/ml pyruvate kinase and 10 μg/ml lactate dehydrogenase.
An assay stock buffer solution was prepared containing all of the reagents listed above, with the exception of ZAP-70 and the test compound of interest of the present invention. 55 μl of the stock solution was placed in a 96 well plate followed by addition of 2 μl of DMSO stock containing serial dilutions of the test compound of the present invention (typically starting from a final concentration of 15 μM). The plate was preincubated for 10 minutes at 30° C. and the reaction initiated by addition of 10 μl of enzyme (final concentration 60 nM). Initial reaction rates were determined with a Molecular Devices SpectraMax Plus plate reader over a 15 minute time course. Ki data was calculated from non-linear regression analysis using the Prism software package (GraphPad Prism version 3.Oa for Macintosh, GraphPad Software, San Diego Calif., USA).

SYK = SYK (Homo sapiens, UniProt P43405); experiment: SYK inhibition assay (standard coupled enzyme assay); type: biochemical; conditions: 200 μM ATP, 4 μM poly Gly-Tyr peptide, 30° C.
Experimental: Compounds were screened for their ability to inhibit SYK using a standard coupled enzyme assay (Fox et al., Protein Sci. 1998, 7, 2249). Reactions were carried out in 100 mM HEPES (pH 7.5), 10 mM MgCl2, 25 mM NaCl, 1 mM DTT and 1.5% DMSO. Final substrate concentrations in the assay were 200 μM ATP (Sigma chemical Co.) and 4 μM poly Gly—Tyr peptide (Sigma Chemical Co.). Assays were carried out at 30° C. and 200 nM SYK. Final concentrations of the components of the coupled enzyme system were 2.5 mM phosphoenolpyruvate, 300 μM NADH, 30 μg/ml pyruvate kinase and 10 μg/ml lactate dehydrogenase.
An assay stock buffer solution was prepared containing all of the reagents listed above, with the exception of SYK, DTT, and the test compound of interest of the present invention. 56 μl of the test reaction was placed in a 96 well plate followed by the addition of 1 μl of 2 mM DMSO stock containing the test compound of the present invnetion (final compound concentration 30 μM). The plate was pre-incubated for ˜10 minutes at 30° C. and the reaction initiated by the addition of 10 μl of enzyme (final concentration 25 nM).

| SMILES | Ki (ZAP-70) [µM] | Ki (SYK) [µM] |
| --- | --- | --- |
| Oc1cc(Nc2nccc(-c3cscn3)n2)cc(C(F)(F)F)c1 [Compound I-6] | ≤ 5 | ≤ 5 |
| COc1cc(Nc2nccc(-c3cscn3)n2)cc(C(F)(F)F)c1 [Compound I-2] | ≤ 5 | ≤ 5 |
| Cc1cc(Nc2nccc(-c3cscn3)n2)cc(C(F)(F)F)c1 [Compound I-5] | ≤ 5 | ≤ 5 |
| Cc1cc(C)cc(Nc2nccc(-c3csc(CO)n3)n2)c1 [Compound I-4] | ≤ 5 | ≤ 5 |
| CC(=O)c1nc(-c2ccnc(Nc3cc(C)cc(C)c3)n2)cs1 [Compound I-3] | ≤ 5 | ≤ 5 |
| Cc1cc(C)cc(Nc2nccc(-c3cscn3)n2)c1 [Compound I-1] | ≤ 5 | ≤ 5 |
